Results as given in patent US7803788B2, “Prodrugs of phosphonate nucoleotide analogues” (Gilead Sciences, Inc., priority 2000, dated 2010).
Like-named read-outs stand apart in the source and are kept apart here.

How the values were obtained:
HIV-1 = assay: In vitro anti-HIV-1 activity in MT-2 cells; type: cell-based
MT-2 cells = assay: Cytotoxicity in MT-2 cells; conditions: Table 4
[1] = dogs, oral, 10 mg-equivalent of PMPA/kg
Experimental: Formulations. The prodrugs were formulated as solutions in 50 mM citric acid within 0.5 hour prior to dose. All compounds used in the studies were synthesized by Gilead Sciences. The following lots were used:
Dose Administration and Sample Collection. The in-life phase of this study was conducted in accordance with the recommendations of the “Guide for the Care and Use of Laboratory Animals” (National Institutes of Health publication 86-23) and was approved by an Institutional Animal Care and Use Committee. Fasted male beagle dogs (10±2 kg) were used for the studies. Each drug was administered as a single dose by oral gavage (1.5-2 ml/kg). The dose was 10 mg-equivalent of PMPA/kg. […] Blood (1.0 ml) was processed immediately for plasma by centrifugation at 2,000 rpm for 10 min. Plasma samples were frozen and maintained at […] until analyzed.
Peripheral Blood Mononuclear Cell (PBMC) preparation. Whole blood (8 ml) drawn at specified time points was mixed in equal proportion with phosphate buffered saline (PBS), layered onto 15 ml of Ficoll-Paque solution (Pharmacia Biotech,) and centrifuged at 400×g for 40 min. PBMC layer was removed and washed once with PBS. Formed PMBC pellet was reconstituted in 0.5 ml of PBS, cells were resuspended, counted using hemocytometer and maintained at […] until analyzed. The number of cells multiplied by the mean single-cell volume was used in calculation of intracellular concentrations. […] Agents Chemother.
Determination of PMPA and Prodrugs in plasma and PBMCs. […] Derivatized samples were then evaporated to dryness and reconstituted in 100 μl of water for HPLC analysis.
Before intracellular PMPA could be determined by HPLC, the large amounts of adenine related ribonucleotides present in the PBMC extracts had to be removed by selective oxidation.
The mobile phases used were: A, 5% acetonitrile in 25 mM potassium phosphate buffer with 5 mM tetrabutyl ammonium bromide (TBABr), pH 6.0; B, 60% acetonitrile in 25 mM potassium phosphate buffer with 5 mM TBABr, pH 6.0. The flow rate was 2 ml/min and the column temperature was maintained at 35° C. by a column oven. […] Data was acquired and stored by a laboratory data acquisition system (PeakPro, Beckman, Allendale, N.J.).
Pharmacokinetic Calculations. […] The AUC values were calculated using the trapezoidal rule.

[2] = Excretion and tissue distribution of radiolabelled GS-7340 in dogs; conditions: for % Dose / Conc.: dogs, oral 10 mg-eq. PMPA/kg
Experimental: Plasma and peripheral blood mononuclear cells (PBMCs) were obtained over the 24-hr period. Urine and feces were cage collected over 24 hr. At 24 h after the dose, the animals were sacrificed and tissues removed for analysis. Total radioactivity in tissues was determined by oxidation and liquid scintillation counting.

[3] = Stability / hydrolysis in MT-2 cell extract; type: in vitro ADME; conditions: 37° C., HEPES buffer pH 7.4
Experimental: (§1) The in vitro metabolism and stability of separated diastereomers were determined in PLCE, MT-2 extract and human plasma. A biological sample listed below, 80 μL, was transferred into a screw-capped centrifuge tube and incubated at 37° C. for 5 min. A solution containing 0.2 mg/mL of the test compound in a suitable buffer, 20 μL, was added to the biological sample and mixed. The reaction mixture, 20 μL, was immediately sampled and mixed with 60 μL of methanol containing 0.015 mg/mL of 2-hydroxymethylnaphthalene as an internal standard for HPLC analysis. The sample was taken as the time-zero sample. Then, at specific time points, the reaction mixture, 20 μL, was sampled and mixed with 60 μl of methanol containing the internal standard. The mixture thus obtained was centrifuged at 15,000 G for 5 min and the supernatant was analyzed with HPLC under the conditions described below.
(§2) The biological samples evaluated are as follows, • (1) PLCE (porcine liver carboxyesterase from Sigma, 160 u/mg protein, 21 mg protein/mL) diluted 20 fold with PBS (phosphated-buffered saline). • (2) MT-2 cell extract was prepared from MT-2 cells according to the published procedure [A. Pompon, I. Lefebvre, J.-L. Imbach, S. Kahn, and D. Farquhar, “Antiviral Chemistry & Chemotherapy”, 5:91-98 (1994)] except for using HEPES buffer described below as the medium. • (3) Human plasma (pooled normal human plasma from George King Biomedical Systems, Inc.)
In the study for MT-2 cell extracts, the test compound was dissolved in HEPES buffer. HEPES buffer contains 0.010 M HEPES, 0.05 M potassium chloride, 0.005 M magnesium chloride, and 0.005 M dl-dithiothreitol. pH 7.4 at 37° C.
(§3) The HPLC analysis was carried out under the following conditions.

[4] = Stability in human plasma; type: in vitro ADME; conditions: 37° C., TBS pH 7.5
Experimental: as §1, §2
In the study for human plasma, the test compound was dissolved in TBS. TBS (tris-buffered saline, Sigma) contains 0.05 M Tris, 0.0027 M potassium chloride, and 0.138 M sodium chloride. pH 7.5 at 37° C.
as §3

[5] = Table 4, activity of isomer A over isomer B
[6] = Table 4, effect of diastereomer, read-out: IC50
[7] = Table 5 (selected IC50 data from Table 4), read-out: HIV IC50

**Q.** What does the source list for `CCOC(=O)C(C)NP(=O)(COC(C)Cn1cnc2c(N)ncnc21)Oc1ccccc1` (mixture of isomers) [Ala-ethyl, Phenyl PMPA, Ethyl L-Alanyl Amidate]?
**A.** Fold change (HIV-1; Table 4, IC50 relative to PMPA): 250x; A/B activity (HIV-1; [5]): 10x; CC50 (MT-2 cells): 60000 nM

**Q.** What does the source list for `COC(=O)C(C)NP(=O)(COC(C)Cn1cnc2c(N)ncnc21)Oc1ccccc1` (mixture of isomers) [Ala-methylester]?
**A.** Fold change (HIV-1; Table 4, IC50 relative to PMPA): 200x; A/B activity (HIV-1; [5]): 20x; CC50 (MT-2 cells): 80000 nM

**Q.** Which results are given for `CCOC(=O)CNP(=O)(COC(C)Cn1cnc2c(N)ncnc21)Oc1ccccc1` (mixture of isomers) [Gly-ethylester]?
**A.** A/B activity (HIV-1): 20x; Fold change (HIV-1): 10x; IC50 (HIV-1; read-out: IC50): 500 nM

**Q.** Which Fold change (HIV-1; Table 4, IC50 relative to PMPA) does the source give for `COC(=O)C(C)NP(=O)(COC(C)Cn1cnc2c(N)ncnc21)Oc1ccccc1` (single isomer, unassigned) [GS-6957a] here?
**A.** 670x

**Q.** With `COC(=O)C(C)NP(=O)(COC(C)Cn1cnc2c(N)ncnc21)Oc1ccccc1` (single isomer, unassigned) [GS-6957b] as the compound, how does the Fold change (HIV-1; Table 4, IC50 relative to PMPA) read?
**A.** 33x

**Q.** With `COC(=O)C(Cc1ccccc1)NP(=O)(COC(C)Cn1cnc2c(N)ncnc21)Oc1ccccc1` (single isomer, unassigned) [GS-7003a] as the compound, how does the Fold change (HIV-1) read?
**A.** 500x

**Q.** For `COC(=O)C(Cc1ccccc1)NP(=O)(COC(C)Cn1cnc2c(N)ncnc21)Oc1ccccc1` (single isomer, unassigned) [GS-7003b], which Fold change (HIV-1) is on record?
**A.** 50x

**Q.** For `CCOC(=O)C(C)NP(=O)(COC(C)Cn1cnc2c(N)ncnc21)Oc1ccccc1` (single isomer, unassigned) [GS-7114], which IC50 (HIV-1; [6]) is on record?
**A.** 5 nM

**Q.** And the Fold change (HIV-1; Table 4, IC50 relative to PMPA)?
**A.** 1,000x

**Q.** And the “PBMC/Plasma Exposure Ratio” value [1]?
**A.** 122

**Q.** What about the “Prodrug in Plasma” value [1] of the same compound?
**A.** YES

**Q.** For `CCOC(=O)C(C)NP(=O)(COC(C)Cn1cnc2c(N)ncnc21)Oc1ccccc1` (single isomer, unassigned) [GS-7115], which IC50 (HIV-1; [6]) is on record?
**A.** 50 nM

**Q.** What about the Fold change (HIV-1; Table 4, IC50 relative to PMPA) of the same compound?
**A.** 100x

**Q.** What about the “PBMC/Plasma Exposure Ratio” value [1] of the same compound?
**A.** 43

**Q.** And the “Prodrug in Plasma” value [1]?
**A.** YES

**Q.** Which Fold change (HIV-1) does the source give for `CCOC(=O)CNP(=O)(COC(C)Cn1cnc2c(N)ncnc21)Oc1ccccc1` (single isomer, unassigned) [GS-7335] here?
**A.** 5x

**Q.** With `CC(C)OC(=O)C(C)NP(=O)(COC(C)Cn1cnc2c(N)ncnc21)Oc1ccccc1` (single isomer, unassigned) [compound 4] as the compound, how does the IC50 (HIV-1; [7]) read?
**A.** 60 nM

**Q.** What does the source list for `CCOC(=O)[C@H](CC)NP(=O)(CO[C@H](C)Cn1cnc2c(N)ncnc21)Oc1ccccc1` (some centres unmarked) [ABA-ethyl]?
**A.** A/B activity (HIV-1): 7.5x; Fold change (HIV-1): 625x; CC50 (MT-2 cells): > 100000 nM

**Q.** For `CCOC(=O)CNP(=O)(CO[C@H](C)Cn1cnc2c(N)ncnc21)Oc1ccccc1` (some centres unmarked) [GS-7119], which Fold change (HIV-1) is on record?
**A.** 100x

**Q.** And the CC50 (MT-2 cells)?
**A.** > 100000 nM

**Q.** Which IC50 (HIV-1; [6]) does the source give for `CC(C)OC(=O)[C@H](C)N[P@](=O)(CO[C@H](C)Cn1cnc2c(N)ncnc21)Oc1ccccc1` [GS-7339] here?
**A.** 60 nM

**Q.** What about the CC50 (MT-2 cells) of the same compound?
**A.** > 100000 nM

**Q.** Which Fold change (HIV-1) does the source give for `CCOC(=O)C(CC)NP(=O)(COC(C)Cn1cnc2c(N)ncnc21)Oc1ccccc1` (centres unmarked) [GS-7342] here?
**A.** 1,250x

**Q.** For `C[C@H](Cn1cnc2c(N)ncnc21)OCP(=O)(O)O` [PMPA, (R)-9-[2-(phosphonomethoxy)propyl]adenine, reference compound], which Fold change (HIV-1) is on record?
**A.** 1x

**Q.** For `COC(=O)[C@H](Cc1ccccc1)NP(=O)(CO[C@H](C)Cn1cnc2c(N)ncnc21)Oc1ccccc1` (some centres unmarked) [Phe-methylester], which A/B activity (HIV-1) is on record?
**A.** 10x

**Q.** And the Fold change (HIV-1)?
**A.** 170x

**Q.** Which results are given for `CC(C)OC(=O)OCOP(=O)(CO[C@H](C)Cn1cnc2c(N)ncnc21)OCOC(=O)OC(C)C.O=C(O)/C=C/C(=O)O` [TDF, tenofovir disoproxil fumarate]?
**A.** % Dose ([2]; Abdominal fat): 0.00%; Conc. ([2]; Abdominal fat): 0.16 ug-eq/g; % Dose ([2]; Adrenal Gland): 0.00%; Conc. ([2]; Adrenal Gland): 1.90 ug-eq/g; % Dose ([2]; Axillary Lymph Nodes): 0.00%; Conc. ([2]; Axillary Lymph Nodes): 0.37 ug-eq/g; % Dose ([2]; Bile): 0.00%; % Dose ([2]; Bone Marrow): 0.00%; Conc. ([2]; Bone Marrow): 0.20 ug-eq/g; % Dose ([2]; Brain): 0.00%; Conc. ([2]; Brain): <LOD; % Dose ([2]; Cerebrospinal Fluid): 0.00%; Conc. ([2]; Cerebrospinal Fluid): <LOD; % Dose ([2]; Duodenum): 0.49%; % Dose ([2]; Eye (L + R)): 0.00%; Conc. ([2]; Eye (L + R)): 0.06 ug-eq/g; % Dose ([2]; Femoral Bone): 0.00%; Conc. ([2]; Femoral Bone): 0.08 ug-eq/g; % Dose ([2]; Gall bladder): 0.00%; % Dose ([2]; Heart): 0.03%; Conc. ([2]; Heart): 0.46 ug-eq/g; % Dose ([2]; Ileum): 0.01%; Conc. ([2]; Ileum): 0.50 ug-eq/g; % Dose ([2]; Iliac Lymph Nodes): 0.00%; Conc. ([2]; Iliac Lymph Nodes): 0.51 ug-eq/g; % Dose ([2]; Inguinal Lymph Nodes): 0.00%; Conc. ([2]; Inguinal Lymph Nodes): 0.28 ug-eq/g; % Dose ([2]; Lungs): 0.03%; Conc. ([2]; Lungs): 0.53 ug-eq/g; % Dose ([2]; Mesenteric Lymph Nodes): 0.00%; Conc. ([2]; Mesenteric Lymph Nodes): 1.20 ug-eq/g; % Dose ([2]; Pancreas): 0.00%; Conc. ([2]; Pancreas): 0.57 ug-eq/g; % Dose ([2]; Pituitary Gland): 0.00%; Conc. ([2]; Pituitary Gland): 0.23 ug-eq/g; % Dose ([2]; Prostate): 0.00%; Conc. ([2]; Prostate): 0.23 ug-eq/g; % Dose ([2]; Salivary Gland (L + R)): 0.00%; Conc. ([2]; Salivary Gland (L + R)): 0.45 ug-eq/g; % Dose ([2]; Skeletal Muscle): 0.00%; Conc. ([2]; Skeletal Muscle): 0.11 ug-eq/g; % Dose ([2]; Skin): 0.00%; Conc. ([2]; Skin): 0.13 ug-eq/g; % Dose ([2]; Spinal Cord): 0.00%; Conc. ([2]; Spinal Cord): <LOD; % Dose ([2]; Spleen): 0.00%; Conc. ([2]; Spleen): 0.63 ug-eq/g; % Dose ([2]; Stomach): 0.11%; % Dose ([2]; Testes (L + R)): 0.02%; % Dose ([2]; Thyroid Gland): 0.00%; Conc. ([2]; Thyroid Gland): 0.30 ug-eq/g; % Dose ([2]; Whole Blood): 0.00%; Conc. ([2]; Whole Blood): 0.85 ug-eq/g; prodrug concentration in the plasma ([2]; dog, in vivo): below the level of assay detection

**Q.** What does the source list for `CC(C)OC(=O)[C@H](C)N[P@](=O)(CO[C@H](C)Cn1cnc2c(N)ncnc21)Oc1ccccc1` [compound 3]?
**A.** IC50 (HIV-1; [7]): 5 nM; MT-2 extract hydrolysis product [3]: Met. X & PMPA; Human Plasma Stability (HP) t1/2 [4]: 90.0 min

**Q.** Which “Human Plasma Stability (HP) t1/2” value [4] does the source give for `CC(C)OC(=O)OCOP(=O)(CO[C@H](C)Cn1cnc2c(N)ncnc21)OCOC(=O)OC(C)C` [compound 7] here?
**A.** 0.41 min
